Assay results published in US11840525B2, “Use of AURKB small-molecule inhibitors for treatment of non-small cell lung cancer” (Nanjing China-Australia Institute of Translational Medicine …, priority 2016, dated 2023).

What was measured:
[1] = test system: H3S10 ph near the E2F2 promoter in A549 cells; experiment: ChIP assay of H3S10 ph near the E2F2 promoter; format: cell-based; settings: TZ47-treated A549 cells
Method: A549 cells were treated by different concentrations of TZ47, and then total RNAs and total proteins of cells were extracted to detect the expression of gene E2F2. […] To further verify the above results, A549 cells were treated with TZ47 and extracted for chromatin, and the chromatin and an H3S10 ph-specific antibody were then used in the ChIP assay. […] It can be seen from the above tests that TZ47 can inhibit the AURKB activity and further inhibit the level of AURKB histone substrate H3S10 ph on the promoter of gene E2F2, affecting the expression of gene E2F2.
The specific steps were described as follows. • a. Detailed steps and conditions for Western blot assay and real-time quantitative PCR test have been described in the above Examples. • b. Chromatin co-immunoprecipitation (ChIP) • 1) In vivo cross-linking of DNA-protein complex
2×10^6-7 cells were collected by low-speed centrifugation, resuspended in 20 mL of RPMI 1640 medium, added with 550 μL of a 37% formalin solution in a fuming cupboard to a final concentration of 1% and incubated for 10 min. The system was mixed 2-3 times during the incubation. • 2) Termination of cross-linking
The cross-linking system was added with 1.35 mL of 2 M glycine (final concentration: 0.1 M), mixed uniformly and incubated for 10 min. […]
The OD260 value of the supernatant was determined and used to calculate the DNA concentration. […]

AURKB = AURKB (Homo sapiens, UniProt Q96GD4); experiment: In vitro phosphorylation (kinase activity) assay with Flag-AURKB and histone H3; format: biochemical; design: made in house; host or cells: 293T cells (transfected with pcDNA-AURKB-Flag); settings: 2 μM of TZ47, Flag-AURKB, histone H3 substrate
Method: Thus, it is speculated that the treatment affected the activity of a kinase which was able to phosphorylate the H3S10. The following procedures were conducted to verify whether TZ47 inhibited the activity of AURKB directly. First, prokaryotic expression of AURKB protein and purification were performed and then a microscale thermophoresis (MST) was used to detect the binding between TZ47 and AURKB protein by testing the change of microscale thermophoresis caused by the hydrated layer (generally derived from the change of the structure/conformation of biomolecules) based on the directional movement of particles in a microscopic temperature gradient. […] Flag-tagged AURKB protein was then enriched by M2-flag beads (anti-Flag antibody conjugated) from the lysed liquid of 293T cells and used in the in-vitro kinase activity analysis. It can be seen from FIGS. 6A-6B that the Flag-AURKB protein had kinase activity and can phosphorylate histone H3.
The components were mixed according to the above specifications, and reacted at 30° C. for 30 min. After the reaction was completed, the reaction mixture was subjected to western blot assay.

HL-60 = experiment: Growth inhibition of tumor cells, HL-60; format: cell-based; settings: Homo sapiens, read-out: IC50 against tumor cells, HL-60
Method: (§1) Lung cancer cells A549 were separated into a 96-well plate and respectively added with 10 mM TZ47 stock solution to final concentrations of 0 μM, 0.1 μM, 0.5 μM, 1 μM, 2 μM, 4 μM and 8 μM in respective wells. Then the 96-well plate was incubated at 37° C. for 48 h and the growth of the cells was analyzed by a CCK-8 method. […] It can be seen from Table 1 that TZ47 also plays a desirable role in inhibiting the growth of other cancer cells including colorectal cancer, leukemia, liver cancer, melanoma, breast cancer and ovarian cancer.

A375 = experiment: Growth inhibition of tumor cells, A375; format: cell-based; settings: Homo sapiens, A-375; read-out: IC50 against tumor cells, A375
Method: as §1

SW480 = experiment: Growth inhibition of tumor cells, SW480; format: cell-based; settings: Homo sapiens, read-out: IC50 against tumor cells, SW480
Method: as §1

AURKB, sequence (Q96GD4 1-345 isoform Q96GD4-5): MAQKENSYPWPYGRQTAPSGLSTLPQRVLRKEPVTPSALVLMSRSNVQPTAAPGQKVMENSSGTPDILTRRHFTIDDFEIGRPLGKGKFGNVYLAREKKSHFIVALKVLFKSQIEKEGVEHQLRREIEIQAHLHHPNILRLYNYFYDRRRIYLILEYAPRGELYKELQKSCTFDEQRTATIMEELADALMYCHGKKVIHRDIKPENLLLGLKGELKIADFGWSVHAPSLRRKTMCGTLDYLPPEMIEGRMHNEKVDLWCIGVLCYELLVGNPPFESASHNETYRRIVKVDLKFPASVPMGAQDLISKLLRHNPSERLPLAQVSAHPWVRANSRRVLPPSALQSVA

kinase activity of AURKB (AURKB): completely inhibited
IC50 (HL-60): 91.6 ± 2.2 nM
IC50 (A375): 1400 ± 110 nM
IC50 (SW480): 9430 ± 340 nM
Compound: c1ccc2c(Cc3[nH]c4ccccc4c3Cc3c[nH]c4ccccc34)c[nH]c2c1 [TZ47]
enrichment of histone H3S10 ph near the E2F2 promoter [1]: significantly reduced
